Assay results taken from publication PMC6271529, “Studies on the Anticonvulsant Activity and Influence on GABA-ergic Neurotransmission of 1,2,4-Triazole-3-thione-Based Compounds” (Molecules, 2014).
Like-named read-outs stand apart in the source and are kept apart here.

How the values were obtained:
[1] = tested on: GABAA receptors; assay: Radioligand binding assay, [3H]muscimol, rat cerebral cortex; details: for Percent of Specific Binding, GABAA: compound 1 × 10^−6 M, [3H]muscimol, rat cerebral cortex; for effect of added compound on affinity of GABA to GABAA receptors: radioligand binding, GABA in combination with compound;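 on Percent of Specific Binding, GABAA: low percentages indicate weak binding of the compound to the receptor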
Experimental: Binding experiments were conducted in 96-well microplates in a total volume of 200 μL of appropriate buffer. The reaction mixture included 50 μL solution of test compound, 50 μL of radioligand, and […] the tissue suspension. Rat cerebral cortex was used for each receptor. […] Radioligand binding data were analyzed using iterative curve fitting routines (GraphPAD/Prism, Version 3.0, San Diego, CA, USA). Ki values were calculated from the Cheng and Prusoff equation [36].

[2] = tested on: maximal electroshock-induced seizures; assay: Maximal electroshock-induced seizure (MES) test in mice; format: in vivo, mouse; details: for p/t, number of animals protected against MES-induced seizures / number tested / responders at 300 mg/kg: 300 mg/kg i.p.; for ED50 / responders at 300 mg/kg: Mus musculus, ip; for PI (TD50/ED50): protective index; for onset of action: significant protection as early as 15 min after parenteral administration, MES; for responders at 300 mg/kg: read-out: percent of animals protected against MES-induced seizures
How it was run: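 Mice given compound i.p. (300 mg/kg screen, then graded doses) 15, 30, 60 or 120 min before ear-clip electroshock (25 mA, 50 Hz, 0.2 s); tonic hind limb extension scored as seizure. ED50 (dose protecting 50% of animals) from Litchfield–Wilcoxon dose-response lines.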

[3] = sub-protective doses of the compound co-administered with valproate; cited from earlier work
[4] = tested on: benzodiazepine (BDZ)-binding sites; assay: Radioligand binding assay, [3H]flunitrazepam, rat cerebral cortex; details: compound 1 × 10^−6 M;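 further: low percentages indicate weak binding of the compound to the site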
Experimental: Binding experiments were conducted in 96-well microplates in a total volume of 200 μL of appropriate buffer. The reaction mixture included 50 μL solution of test compound, 50 μL of radioligand, and […] the tissue suspension. Rat cerebral cortex was used for each receptor. The radioactivity was measured in MicroBeta TriLux 1450-liquid scintillation counter (PerkinElmer, Waltham, MA, USA). Radioligand binding data were analyzed using iterative curve fitting routines (GraphPAD/Prism, Version 3.0, San Diego, CA, USA). Ki values were calculated from the Cheng and Prusoff equation [36].

[5] = tested on: threshold for electroconvulsions; parameters: method as in PMID 22732650; details: cited from earlier work
[6] = pretreatment time 120 min, mice
[7] = chimney TD50 / MES ED50, pretreatment time 15 min
[8] = chimney TD50 / MES ED50, pretreatment time 30 min
[9] = chimney TD50 / MES ED50, pretreatment time 60 min
[10] = chimney TD50 / MES ED50, pretreatment time 120 min

Cc1ccc(-n2c(-c3cccc(Cl)c3)n[nH]c2=S)cc1 [Compound 10a, 5-(3-Chlorophenyl)-4-(4-methylphenyl)-2,4-dihydro-3H-1,2,4-triazole-3-thione]
Percent of Specific Binding, GABAA [1]: 2% | effect of added compound on affinity of GABA to GABAA receptors [1]: did not lead to an increase | p/t, number of animals protected against MES-induced seizures / number tested ([2]; pretreatment time 15 min, mice): 8/8 | p/t, number of animals protected against MES-induced seizures / number tested ([2]; pretreatment time 30 min, mice): 8/8 | p/t, number of animals protected against MES-induced seizures / number tested ([2]; pretreatment time 60 min, mice): 8/8 | p/t, number of animals protected against MES-induced seizures / number tested [2, 6]: 6/8 | ED50 ([2]; read-out: ED50 ± S.E. (MES test), i.p., pretreatment time 15 min, mice): 57 ± 9.4 mg/kg | ED50 ([2]; read-out: ED50 ± S.E. (MES test), i.p., pretreatment time 30 min, mice): 74.5 ± 8.1 mg/kg | ED50 ([2]; read-out: ED50 ± S.E. (MES test), i.p., pretreatment time 60 min, mice): 187 ± 18.8 mg/kg | ED50 ([2]; read-out: ED50 ± S.E. (MES test), i.p., pretreatment time 120 min, mice): 281 ± 13.6 mg/kg | PI (TD50/ED50) [2, 7]: 5.9 | PI (TD50/ED50) [2, 8]: 4.5 | PI (TD50/ED50) [2, 9]: 1.8 | PI (TD50/ED50) [2, 10]: 1.4 | onset of action ([2]; mice): quick onset of action | elevation of total brain concentration of valproate [3]: 52% | Percent of Specific Binding, BDZ [4]: 9%

S=c1[nH]nc(-c2cccc(Cl)c2)n1-c1ccc(Br)cc1 [Compound 6a, 4-(4-Bromophenyl)-5-(3-chlorophenyl)-2,4-dihydro-3H-1,2,4-triazole-3-thione]
Percent of Specific Binding, GABAA [1]: 17% | effect of added compound on affinity of GABA to GABAA receptors [1]: did not lead to an increase | elevation of the threshold for electroconvulsions [5]: 70% | p/t, number of animals protected against MES-induced seizures / number tested ([2]; pretreatment time 15 min, mice): 4/8 | p/t, number of animals protected against MES-induced seizures / number tested ([2]; pretreatment time 30 min, mice): 6/8 | p/t, number of animals protected against MES-induced seizures / number tested ([2]; pretreatment time 60 min, mice): 6/8 | p/t, number of animals protected against MES-induced seizures / number tested [2, 6]: 3/8 | anticonvulsant activity (in words) ([2]; MES test, mice): slightly weaker than that of valproate | responders at 300 mg/kg ([2]; 0.25 h, pretreatment time 15 min, mice): 50% | responders at 300 mg/kg ([2]; 0.5 h, pretreatment time 30 min, mice): 75% | responders at 300 mg/kg ([2]; 1 h, pretreatment time 60 min, mice): 75% | responders at 300 mg/kg ([2]; 2 h, pretreatment time 120 min, mice): 37.5% | ED50 ([2]; pretreatment time 15 min, mice, read-out: ED50 ± S.E. (MES test)): 298 ± 21.1 mg/kg | ED50 ([2]; pretreatment time 30 min, mice, read-out: ED50 ± S.E. (MES test)): 218 ± 21.7 mg/kg | ED50 ([2]; pretreatment time 60 min, mice, read-out: ED50 ± S.E. (MES test)): 209 ± 27.3 mg/kg | ED50 ([2]; pretreatment time 120 min, mice, read-out: ED50 ± S.E. (MES test)): 336 ± 14 mg/kg | PI (TD50/ED50) [2, 7]: 1.2 | PI (TD50/ED50) [2, 8]: 1.8 | PI (TD50/ED50) [2, 9]: 1.9 | PI (TD50/ED50) [2, 10]: 1.3 | onset of action ([2]; mice): quick onset of action | Percent of Specific Binding, BDZ [4]: 20%
